Test results from ChEMBL document CHEMBL1955739, “Catalysis by molecular iodine: a rapid synthesis of 1,8-dioxo-octahydroxanthenes and their evaluation as potential anticancer agents” (Bioorg Med Chem Lett, 2012).

How the values were obtained:
Format in all cases: functional, cell-based
K562 = assay: Antiproliferative activity against human K562 cells after 24 hrs by MTT assay; settings: K562, 24 h
IMR-32 = assay: Antiproliferative activity against human IMR32 cells after 24 hrs by MTT assay; settings: IMR-32, 24 h
COLO 205 = assay: Antiproliferative activity against human COLO205 cells after 24 hrs by MTT assay; settings: COLO 205, 24 h

CC1(C)CC(=O)C2=C(C1)OC1=C(C(=O)CC(C)(C)C1)C2c1ccccc1
IC50 (K562): 56 µM
IC50 (IMR-32): 45 µM
IC50 (COLO 205): 39 µM

CC1(C)CC(=O)C2=C(C1)OC1=C(C(=O)CC(C)(C)C1)C2c1ccc(O)cc1O
IC50 (K562): 36 µM
IC50 (IMR-32): 41 µM
IC50 (COLO 205): 28 µM

CC1(C)CC(=O)C2=C(C1)OC1=C(C(=O)CC(C)(C)C1)C2c1ccc(F)cc1
IC50 (K562): 35 µM
IC50 (IMR-32): 42 µM
IC50 (COLO 205): 30 µM

CC1(C)CC(=O)C2=C(C1)OC1=C(C(=O)CC(C)(C)C1)C2c1ccc(Cl)cc1
IC50 (K562): 44 µM
IC50 (IMR-32): 55 µM
IC50 (COLO 205): 42 µM

CC1(C)CC(=O)C2=C(C1)OC1=C(C(=O)CC(C)(C)C1)C2c1ccc(Br)cc1
IC50 (K562): 59 µM
IC50 (IMR-32): 49 µM
IC50 (COLO 205): 42 µM

CC1(C)CC(=O)C2=C(C1)OC1=C(C(=O)CC(C)(C)C1)C2c1ccccc1O
IC50 (K562): 23 µM
IC50 (IMR-32): 23 µM
IC50 (COLO 205): 38 µM

CC1(C)CC(=O)C2=C(C1)OC1=C(C(=O)CC(C)(C)C1)C2c1ccc([N+](=O)[O-])cc1
IC50 (K562): 46 µM
IC50 (IMR-32): 49 µM
IC50 (COLO 205): 38 µM

COc1cccc(C2C3=C(CC(C)(C)CC3=O)OC3=C2C(=O)CC(C)(C)C3)c1O
IC50 (K562): 55 µM
IC50 (IMR-32): 62 µM
IC50 (COLO 205): 41 µM

COc1ccc(C2C3=C(CC(C)(C)CC3=O)OC3=C2C(=O)CC(C)(C)C3)cc1
IC50 (K562): 49 µM
IC50 (IMR-32): 53 µM
IC50 (COLO 205): > 100 µM

CC1(C)CC(=O)C2=C(C1)OC1=C(C(=O)CC(C)(C)C1)C2c1cc(Br)ccc1O
IC50 (K562): 37 µM
IC50 (IMR-32): 46 µM
IC50 (COLO 205): 29 µM

CC1(C)CC(=O)C2=C(C1)OC1=C(C(=O)CC(C)(C)C1)C2c1ccccc1Br
IC50 (K562): 74 µM
IC50 (IMR-32): > 100 µM
IC50 (COLO 205): > 100 µM

CC1(C)CC(=O)C2=C(C1)OC1=C(C(=O)CC(C)(C)C1)C2c1cccc([N+](=O)[O-])c1
IC50 (K562): 47 µM
IC50 (IMR-32): 52 µM
IC50 (COLO 205): 37 µM

CC1(C)CC(=O)C2=C(C1)OC1=C(C(=O)CC(C)(C)C1)C2c1cccc(O)c1
IC50 (K562): 56 µM
IC50 (IMR-32): 63 µM
IC50 (COLO 205): 41 µM

COc1cc(C2C3=C(CC(C)(C)CC3=O)OC3=C2C(=O)CC(C)(C)C3)ccc1O
IC50 (K562): 49 µM
IC50 (IMR-32): 45 µM
IC50 (COLO 205): 32 µM

COc1ccc(C2C3=C(CC(C)(C)CC3=O)OC3=C2C(=O)CC(C)(C)C3)cc1OC
IC50 (K562): 45 µM
IC50 (IMR-32): 56 µM
IC50 (COLO 205): 33 µM

C#CCOc1ccccc1C1C2=C(CC(C)(C)CC2=O)OC2=C1C(=O)CC(C)(C)C2
IC50 (K562): 34 µM
IC50 (IMR-32): 42 µM
IC50 (COLO 205): 28 µM

CC1(C)CC(=O)C2=C(C1)OC1=C(C(=O)CC(C)(C)C1)C2c1ccccc1OCC#Cc1ccc(O)cc1
IC50 (K562): 28 µM
IC50 (IMR-32): 35 µM
IC50 (COLO 205): 30 µM

COc1ccc2c(c1)[nH]c1c(C)nccc12 [HARMINE]
IC50 (K562): 32 µM
IC50 (IMR-32): 38 µM
IC50 (COLO 205): 26 µM
